Source: US8853409B2, “Pyridin-2yl-amino-1, 2, 4-thiadiazole derivatives as glucokinase activators for the treatment of diabetes mellitus” (Array BioPharma Inc., priority 2007, dated 2014)

Test: Mouse PK study (oral pharmacokinetics)
Format: in vivo
Settings: male, 10 mg/kg, CD-1 mice, plasma, read-out: AUC indicator (oral AUC)
Protocol: Oral pharmacokinetics of each of the compounds shown in Table 1 (“test compound”) were determined as follows.
Test compound was formulated in PEG400:ethanol:saline (40:20:40, by volume) for IV administration and in 30% Captisol in water for both IV and PO administration in CD-1 mice. Labetalol was used as an internal standard for the LC-MS/MS assay of the CD-1 mouse samples.
Adult male CD-1 mice were obtained from Charles River Laboratories in Portage, Mich. At the time of study-start, each CD-1 mouse weighed approximately 30 grams and was between the ages of 7-9 weeks. All CD-1 mice were acclimated to the Array BioPharma Inc. vivarium for at least 5 days prior to administration of an IV dose by way of a tail vein injection (5 mL/kg) or a PO dose by oral gavage (10 mL/kg).
Animals were euthanized by CO2 inhalation and blood samples were collected by cardiac puncture into syringes containing a 1.5% EDTA solution in water (w/v; pH was titrated to 7.4 with 5 N NaOH; the final ratio of blood to EDTA was approximately […]) as the anticoagulant. Plasma was harvested from blood samples by centrifugation and stored at −20° C. until analysis. The following time points were collected for the IV arm: 0.017, 0.083, 0.25, 0.5, 1, 2, 4, 8, 12 and 24 hours post dose. The following time points were collected for the PO arm: 0.25, 0.50, 1, 4, 8, and 24 hours post dose.
Protein was precipitated from 20 μL of mouse plasma with the addition of 200 μL of 0.1% acetic acid in acetonitrile. A single 12-point calibration curve was prepared by first serially diluting (3-fold) a 40-μg/mL stock solution of the test compound in acetonitrile. Naive CD-1 mouse plasma (20 μL) was then added to each standard solution (200 μL). A stock solution of the internal standard (Labetalol; 180 μL of 0.1 μg/mL in acetonitrile) was subsequently added to each standard and sample solution, for a total volume of 400 μL. Samples were vortex-mixed for 5 minutes and spun in an Allegra X-12R centrifuge (Beckman Coulter, Fullerton, Calif.) for 15 minutes at approximately 1,500×g at 4° C. A 100-μL aliquot of each supernatant was transferred via a 550 μL Personal Pipettor (Apricot Designs, Monrovia, Calif.) to 96-well plates and diluted 1:1 with HPLC grade water. The resulting plates were sealed with plate mats and analyzed by LC-MS/MS.
The LC-MS/MS system was comprised of an HTC-PAL autosampler (Leap Technologies, Inc., Carrboro, N.C.), an HP1100 HPLC (Agilent Technologies Inc., Santa Clara, Calif.), and an API4000 triple quadrupole mass spectrometer (Applied Biosystems, Foster City, Calif.). Chromatographic retention of the analyte and internal standard was achieved using a Betasil Phenyl-Hexyl column (2.1×30 mm, 3 μm particle size, Thermo Scientific) in conjunction with gradient conditions using mobile phases A (aqueous 0.1% formic acid and 1% IPA) and B (0.1% formic acid in acetonitrile). The total run time, including re-equilibration time, for a single injection was 3.5 minutes. Mass spectrometric detection of the analytes was accomplished using ESI+ ionization mode. Ion current was optimized during infusion of a stock solution of the test compound. Analyte responses were measured by multiple reaction monitoring (MRM) of transitions unique to each compound.
Data were acquired and processed using the Applied Biosystems Analyst software (version 1.4.2). Calibration was achieved by plotting the peak area ratios of analyte to internal standard as a function of the normal concentrations of standard samples. A calibration model was generated by quadratic regression of the calibration curve with a weighting factor of 1/x. The model was used to calculate the concentrations in all samples. The lower limit of quantitation (LLOQ) for this analysis was in the single-digit μg/mL range (either 2.03 or 6.10 μg/mL).
Pharmacokinetic parameters were calculated by established non-compartmental methods using an in-house Excel® (Microsoft Corporation, Redmond, Wash.) macro, PK Toolbox version 2.0. […]

Row | Compound | AUC
1 | CCc1ncccc1Oc1cc(Sc2ccccn2)cnc1Nc1nc([C@H](O)[C@@H](O)COC)ns1.Cl [Example 145, (1S,2S)-1-(5-(3-(2-ethylpyridin-3-yloxy)-5-(pyridin-2-ylthio)pyridin-2-ylamino)-1,2,4-thiadiazol-3-yl)-3-methoxypropane-1,2-diol hydrochloride] | 5000 to 10000 ng·h/mL
2 | Cc1cccnc1Sc1cnc(Nc2nc([C@H](O)CO)ns2)c(Oc2cccnc2C)c1.Cl [Example 141, (S)-1-(5-(5-(3-methylpyridin-2-ylthio)-3-(2-methylpyridin-3-yloxy)pyridin-2-ylamino)-1,2,4-thiadiazol-3-yl)ethane-1,2-diol hydrochloride] | 1000 to 5000 ng·h/mL
3 | CCn1nccc1Oc1cc(Sc2ccccn2)cnc1Nc1nc([C@H](O)CO)ns1.Cl [Example 139, (S)-1-(5-(3-(1-Ethyl-1H-pyrazol-5-yloxy)-5-(pyridin-2-ylthio)pyridin-2-ylamino)-1,2,4-thiadiazol-3-yl)ethane-1,2-diol hydrochloride] | > 20000 ng·h/mL
4 | Cc1ccc(Oc2cc(Sc3ccccn3)cnc2Nc2nc([C@H](O)CO)ns2)c(C)n1.Cl [Example 135, (S)-1-(5-(3-(2,6-dimethylpyridin-3-yloxy)-5-(pyridin-2-ylthio)pyridin-2-ylamino)-1,2,4-thiadizol-3-yl)ethane-1,2-diol hydrochloride] | 5000 to 10000 ng·h/mL
5 | COCCSc1cnc(Nc2nc([C@H](O)CO)ns2)c(Oc2c(C)nn(C)c2C)c1.Cl [Example 148, (S)-1-(5-(5-(2-methoxyethylthio)-3-(1,3,5-trimethyl-1H-pyrazol-4-yloxy)pyridin-2-ylamino)-1,2,4-thiadiazol-3-yl)ethane-1,2-diol hydrochloride] | 1000 to 5000 ng·h/mL
6 | COCCCSc1cnc(Nc2nc([C@H](O)CO)ns2)c(Oc2cccnc2C)c1.Cl [Example 138, (S)-1-(5-(5-(3-methoxypropylthio)-3-(2-methylpyridin-3-yloxy)-pyridin-2-ylamino)-1,2,4-thiadizol-3-yl)ethane-1,2-diol hydrochloride] | 1000 to 5000 ng·h/mL
7 | Cc1ncccc1Oc1cc(Sc2ccccn2)cnc1Nc1nc([C@](C)(O)CO)ns1.Cl [Example 150, (S)-2-(5-(3-(2-methylpyridin-3-yloxy)-5-(pyridin-2-ylthio)pyridin-2-ylamino)-1,2,4-thiadiazol-3-yl)propane-1,2-diol hydrochloride] | 10000 to 20000 ng·h/mL
8 | Cc1ncccc1Oc1cc(Sc2ccccn2)cnc1Nc1nc([C@@H](O)CO)ns1 [Example 149, (R)-1-(5-(3-(2-methylpyridin-3-yloxy)-5-(pyridin-2-ylthio)pyridin-2-ylamino)-1,2,4-thiadiazol-3-yl)ethane-1,2-diol] | 5000 to 10000 ng·h/mL
9 | Cc1ncccc1Oc1cc(Sc2ccccn2)cnc1Nc1nc([C@H](O)C(C)(C)O)ns1.Cl [Example 143, (S)-2-methyl-1-(5-(3-(2-methylpyridin-3-yloxy)-5-(pyridin-2-ylthio)pyridin-2-ylamino)-1,2,4-thiadiazol-3-yl)propane-1,2-diol hydrochloride] | > 20000 ng·h/mL
10 | Cc1ccnc(C)c1Oc1cc(Sc2ccccn2)cnc1Nc1nc([C@H](O)CO)ns1.Cl [Example 142, (S)-1-(5-(3-(2,4-dimethylpyridin-3-yloxy)-5-(pyridin-2-ylthio)pyridin-2-ylamino)-1,2,4-thiadiazol-3-yl)ethane-1,2-diol hydrochloride] | 1000 to 5000 ng·h/mL
11 | COCCSc1cnc(Nc2nc([C@H](O)CO)ns2)c(Oc2cccnc2C)c1.Cl [Example 144, (S)-1-(5-(5-(2-methoxyethylthio)-3-(2-methylpyridin-3-yloxy)pyridin-2-ylamino)-1,2,4-thiadiazol-3-yl)ethane-1,2-diol hydrochloride] | 5000 to 10000 ng·h/mL
12 | Cc1nn(C)c(C)c1Oc1cc(Sc2ccccn2)cnc1Nc1nc([C@H](O)CO)ns1.Cl [Example 147, (S)-1-(5-(5-(pyridin-2-ylthio)-3-(1,3,5-trimethyl-1H-pyrazol-4-yloxy)pyridin-2-ylamino)-1,2,4-thiadiazol-3-yl)ethane-1,2-diol hydrochloride] | 1000 to 5000 ng·h/mL
13 | CCn1nccc1Oc1cc(Sc2ccccn2)cnc1Nc1nc([C@H](O)C(C)(C)O)ns1.Cl [Example 140, (S)-1-(5-(3-(1-ethyl-1H-pyrazol-5-yloxy)-5-(pyridin-2-ylthio)pyridin-2-ylamino)-1,2,4-thiadiazol-3-yl)-2-methylpropane-1,2-diol] | > 20000 ng·h/mL
14 | Cc1ncccc1Oc1cc(Sc2ccccn2)cnc1Nc1nc([C@@](C)(O)CO)ns1.Cl [Example 151, (R)-2-(5-(3-(2-methylpyridin-3-yloxy)-5-(pyridin-2-ylthio)pyridin-2-ylamino)-1,2,4-thiadiazol-3-yl)propane-1,2-diol hydrochloride] | > 20000 ng·h/mL
15 | Cc1nn(C)c(C)c1Oc1cc(Sc2ccccn2)cnc1Nc1nc([C@H](O)C(C)(C)O)ns1.Cl [Example 146, (S)-2-methyl-1-(5-(5-(pyridin-2-ylthio)-3-(1,3,5-trimethyl-1H-pyrazol-4-yloxy)pyridin-2-ylamino)-1,2,4-thiadiazol-3-yl)propane-1,2-diol hydrochloride] | 10000 to 20000 ng·h/mL
16 | Cc1ncccc1Oc1cc(Sc2ccccn2)cnc1Nc1nc([C@H](O)CO)ns1.Cl [Example 134, (S)-1-(5-(3-(2-methylpyridin-3-yloxy)-5-(pyridin-2-ylthio)pyridin-2-ylamino)-1,2,4-thiadiazol-3-yl)ethane-1,2-diol hydrochloride] | 10000 to 20000 ng·h/mL
17 | CCc1ncccc1Oc1cc(Sc2ccccn2)cnc1Nc1nc([C@H](O)CO)ns1 [Example 137] | 5000 to 10000 ng·h/mL
18 | Cc1ncccc1Oc1cc(SCC2CC2)cnc1Nc1nc([C@H](O)CO)ns1.Cl [Example 136, (S)-1-(5-(5-(cyclopropylmethylthio)-3-(2-methylpyridin-3-yloxy)pyridin-2-ylamino)-1,2,4-thiadizol-3-yl)ethane-1,2-diol hydrochloride] | 10000 to 20000 ng·h/mL
